Experimental findings from paper PMC10856454, “Discovery of Novel Antitumor Small-Molecule Agent with Dual Action of CDK2/p-RB and MDM2/p53” (Molecules, 2024) are described below.

By Papp A→B is commonly meant the apparent permeability from the apical to the basolateral side of a cell layer. Low values mean poor permeation, high ones ready permeation. In general, Papp B→A refers to how fast a substance crosses the layer from the basolateral side. As a reminder, the efflux ratio is a quotient of directional permeabilities that is used to spot active efflux. Usually IC50 stands for the point on the concentration scale where inhibition reaches its midpoint. The term IC90 denotes the concentration at which the effect reaches the 90% level. As a reminder, the CLint scaled is the rate of metabolic loss divided by the concentration. Usually half-life stands for the time needed for the level to fall by half in the phase considered. Low readings indicate rapid decline, high ones slow decline.

Structures are written as SMILES.

The subject of series [1] is HCT116 cells. The experiment in a line: Cell cycle detection by flow cytometry, HCT116. In kind it is cell-based. The note with it: 24 h. The method, then: Cells were plated at 300,000 cells overnight in six-well plates. III-13 was added in a dose-dependent fashion and then cells were incubated for 24 h. The cells were then fixed with 75% ethanol overnight at 4 °C. The cells were centrifuged, and ethanol was removed. The cells were washed twice with 1 × PBS following staining with DAPI (4′, 6′ diamino-2-phenylindole) and analyzed using Guava easyCyte HT (Merck KGaA, Darmstadt, Germany) with a blue filter. Experiments were performed in triplicate.
For orientation: In flow cytometry, cells or beads pass a laser one at a time.

Series [2] can be described thus: Caco-2 permeability and transporter substrate evaluation. In kind it is in vitro ADME. As to conditions: human, Caco-2, 2 μM. The method, then: Caco-2 cells were cultured in MEM with 20% FBS, penicillin (100 U/mL), and streptomycin (100 μg/mL) at 37 °C in 95% air and 5% CO2. Cells were seeded into 96-well cell plates and cultured continuously for 24 days for subsequent experiments. […] After 120 min of incubation, samples were collected from the apical and basal ends. The […] content of each sample was determined by liquid chromatography–tandem mass spectrometry (LC-MS/MS). The apparent […] coefficient and efflux ratio were calculated.

For series [3], the target named is T1, CDK2 (Homo sapiens, UniProt P24941).
T1 construct: purchased Thermo Fisher Scientific
The experiment in a line: Kinase antagonist activity assay (TR-FRET), CDK2. In kind it is biochemical. The method, then: (§1) The compounds were solubilized with DMSO (Solarbio Life Sciences, Beijing, China), and 11 concentrations were serially diluted at 3-fold; 100 nL of compound was added to 384-well plates, 5 μL of 2 × enzyme mixture (Thermo Fisher Scientific, Waltham, MA, USA) was added, and 5 μL of buffer was added instead of the complete inhibition control wells. Then, 1000 rpm centrifugation was performed for 30 s followed by a 15 min incubation at 23 °C. Next, 5 μL of 2 × MLight-MBP peptide (PerkinElmer, Waltham, MA, USA) was added to each well, with 1000 rpm centrifugation for 30 s and incubation at 23 °C for 90 min. At the end of the incubation, the reaction was terminated with buffer containing 15 mM EDTA and 2 nM Eu-anti-P-MBP antibody (PerkinElmer, Waltham, MA, USA), centrifuged at 1000 rpm for 1 min, and incubated at 23 °C for 60 min; the plates were read on a Perkin Elmer Envision ([…]).
A general note: In TR-FRET formats the signal depends on donor and acceptor labels being close together.

Series [4] concerns HCT116 cells. The experiment in a line: Colony formation, HCT116. In kind it is cell-based. As to conditions: 14 days. The method, then: Cells were inoculated in six-well plates at 1000 cells per well, and III-13 was added in a dose-dependent manner after 24 h. Cells were stained with Crystal Violet Staining Solution (Beyotime, Shanghai, China) at 14 days after incubation, and the cell colonies were counted using Image J.

For series [5], the target named is T2, hERG (Homo sapiens, UniProt Q12809).
T2 construct: expressed in transfected cells; host or cells: CHO cells
The series can be described thus: hERG assay in CHO cells stably expressing hERG. In kind it is cell-based. The note with it: maximum concentration of 30 μM. The method, then:
This test method is a reference to a previous study. CHO cells stably expressing hERG were cultured with medium containing 10% FBS, penicillin (100 U/mL), and streptomycin (100 μg/mL) in DMEM/F12 in an incubator at 37 °C, 5% CO2. Cultures were passaged in a 1:5 ratio every 48 h. The medium consisted of 90% F12, 10% FBS, G418 (100 μg/mL), and hygromycin B (100 μg/mL). On the day of the assay, the current should reach a steady state for at least 1 min prior to administration of the compounds, and the test current was measured again after 5 min of stimulation with different concentrations of the drug.

Series [6] deals with T3, CDK1 (Homo sapiens, UniProt P06493).
T3 construct: purchased Thermo Fisher Scientific
The series can be described thus: Kinase antagonist activity assay (TR-FRET), CDK1. In kind it is biochemical. Here is the method:
as §1

Series [7] has as its system TOV-21G cells. The experiment in a line: Cell proliferation assay (Celltiter-Glo), TOV-21G. In kind it is cell-based. As to conditions: Homo sapiens, TOV21G, 72 h; TOV-21G (normal expression of CCNE1), three days. The method, then: Celltiter-Glo Luminescent Cell Viability Assay (Promega, Madison, WI, USA) was used to detect cell viability according to the manufacturer’s instructions. This assay is a homogeneous method of determining the number of viable cells in a culture based on quantitation of the ATP present, an indicator of metabolically active cells. Cells were digested and paved in white-bottomed 96-well plates with 1000 cells/100 μL cell suspension solution; then, different concentrations of compounds were added the next day. TOV-21G and HCT116 were placed in the incubator for three days and OVCAR3 for five days. Then, 100 μL Celltiter-Glo solution was added and mixed for 5 min; the luminous intensity of each well was detected with a spectrophotometer (BioTek, Winooski, VT, USA). The experiment was repeated three times to calculate the cell survival rate.

Series [8] in a line: Liver microsomal stability, mouse. In kind it is in vitro ADME. The note with it: Mice liver microsomes. The method, then:
(§2) Compounds were incubated with mouse, rat, and human liver microsomal samples and NADPH at 37 °C for 5, 10, 20, 30, or 60 min. The reaction was terminated with a cold acetonitrile solution containing tolbutamide. Compound retention was determined by LC-MS/MS. The retention times, chromatographic acquisition, and chromatographic integration of compounds and positive control substances were analyzed using Analyst (AB Sciex, Framingham, MA, USA).

Series [9] relates to HCT116 cells. The experiment in a line: Cell scratch test (migration), HCT116. In kind it is cell-based. The note with it: 24 h. Here is the method: (§3) Cells were inoculated into six-well plates as long as they spread to the bottom of the wells after wall attachment. After 24 h of wall attachment, cells were scratched with a 200 μL pipette tip and then replaced with low serum medium (1% FBS) containing different concentrations of compounds. Spot photographs were taken at 0 h and 24 h after the scratch was made. Data analysis was performed using Adobe Photoshop 2021 (Adobe Systems Software Ireland Ltd., San Jose, CA, USA) and Image J2 (National Institutes of Health, Bethesda, MD, USA).

Series [10] deals with OVCAR3 cells. The experiment in a line: Cell scratch test (migration), OVCAR3. In kind it is cell-based. As to conditions: 24 h. Here is the method:
as §3

Series [11] can be described thus: Liver microsomal stability, rat. In kind it is in vitro ADME. As to conditions: Rat liver microsomes. The method, then:
as §2
Background: Microsomes from liver hold many membrane-bound enzymes, among them those of drug oxidation.

Series [12] deals with HCT116 transplanted tumor. The series can be described thus: Tumor xenograft experiment, nude mouse model of HCT116 transplanted tumor. In kind it is in vivo, Balb/c nude mice. Here is the method: HCT116 cells (1 × 10^6) were implanted into the back of adult male Balb/c nude mice by subcutaneous injection. […] The solvent or drug containing solution was administered daily to the vehicle and dosing groups by intraperitoneal injection (0.2 mL/20 g). Tumor growth was measured every three days during treatment. At the end of the treatment, the mice were killed, and the tumors were removed and weighed.

Where [13] appears, read: 50 mg/kg, intraperitoneal daily, 14 days.

T3 sequence (P06493 whole entry): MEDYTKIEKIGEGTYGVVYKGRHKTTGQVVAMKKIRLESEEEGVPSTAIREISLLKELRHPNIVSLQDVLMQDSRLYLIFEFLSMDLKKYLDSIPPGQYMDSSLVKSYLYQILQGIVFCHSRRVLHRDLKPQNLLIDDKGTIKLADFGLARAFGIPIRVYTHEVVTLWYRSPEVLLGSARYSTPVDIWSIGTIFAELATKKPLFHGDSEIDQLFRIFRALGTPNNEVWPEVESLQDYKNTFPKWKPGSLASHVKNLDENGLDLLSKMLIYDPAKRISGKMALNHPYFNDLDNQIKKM
T3 sequence (P14635 whole entry partner): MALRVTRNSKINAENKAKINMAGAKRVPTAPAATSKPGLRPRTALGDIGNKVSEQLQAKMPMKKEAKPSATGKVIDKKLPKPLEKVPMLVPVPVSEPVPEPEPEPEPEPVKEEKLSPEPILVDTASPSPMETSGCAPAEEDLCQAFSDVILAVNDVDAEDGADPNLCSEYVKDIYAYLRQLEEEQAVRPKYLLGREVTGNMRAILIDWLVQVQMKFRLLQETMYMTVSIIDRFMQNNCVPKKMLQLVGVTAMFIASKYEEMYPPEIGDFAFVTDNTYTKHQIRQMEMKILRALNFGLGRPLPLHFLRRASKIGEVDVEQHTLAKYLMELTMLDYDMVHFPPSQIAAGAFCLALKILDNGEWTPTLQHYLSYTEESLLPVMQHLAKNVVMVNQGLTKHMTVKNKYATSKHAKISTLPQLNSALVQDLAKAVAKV
T2 sequence (Q12809 whole entry): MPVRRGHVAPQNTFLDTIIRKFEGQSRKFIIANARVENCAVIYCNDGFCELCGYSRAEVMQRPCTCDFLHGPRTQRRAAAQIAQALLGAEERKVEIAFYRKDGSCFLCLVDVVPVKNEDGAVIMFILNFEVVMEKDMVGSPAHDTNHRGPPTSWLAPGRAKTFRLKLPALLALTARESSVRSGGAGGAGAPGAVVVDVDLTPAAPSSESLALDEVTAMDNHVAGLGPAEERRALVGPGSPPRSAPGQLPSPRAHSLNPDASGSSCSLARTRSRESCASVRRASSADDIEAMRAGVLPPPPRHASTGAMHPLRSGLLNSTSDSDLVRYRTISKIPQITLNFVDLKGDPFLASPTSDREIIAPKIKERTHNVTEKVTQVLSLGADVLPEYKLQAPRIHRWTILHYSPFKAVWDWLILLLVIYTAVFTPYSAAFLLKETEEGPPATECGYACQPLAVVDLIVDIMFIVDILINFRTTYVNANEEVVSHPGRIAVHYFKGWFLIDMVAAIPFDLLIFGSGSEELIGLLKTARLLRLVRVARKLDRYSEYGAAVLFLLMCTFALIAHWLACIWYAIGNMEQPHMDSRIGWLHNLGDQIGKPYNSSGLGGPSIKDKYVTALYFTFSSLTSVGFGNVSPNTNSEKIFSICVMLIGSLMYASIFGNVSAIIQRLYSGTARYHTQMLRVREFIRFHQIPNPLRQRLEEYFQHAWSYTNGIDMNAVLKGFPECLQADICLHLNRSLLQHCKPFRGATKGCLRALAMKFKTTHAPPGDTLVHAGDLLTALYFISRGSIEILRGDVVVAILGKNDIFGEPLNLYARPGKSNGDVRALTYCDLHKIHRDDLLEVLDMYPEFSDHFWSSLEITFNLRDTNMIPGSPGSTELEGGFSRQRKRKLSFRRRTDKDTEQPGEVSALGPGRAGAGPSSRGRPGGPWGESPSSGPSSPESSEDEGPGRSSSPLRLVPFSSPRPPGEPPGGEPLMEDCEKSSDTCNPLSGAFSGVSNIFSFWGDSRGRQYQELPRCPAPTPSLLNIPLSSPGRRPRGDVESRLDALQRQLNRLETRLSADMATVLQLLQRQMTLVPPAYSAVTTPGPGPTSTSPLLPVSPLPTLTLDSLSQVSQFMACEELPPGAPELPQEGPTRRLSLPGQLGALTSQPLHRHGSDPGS

Take `CC1(C)CCN1C(=O)O[C@@H]1CC[C@H](c2cc(NC(=O)Cc3ccc(N4CCCC4=O)cc3)n[nH]2)C1` [III-13]: the cell cycle arrest entry in [1] was “arrested HCT116 and OVCAR3 cells in the G0/G1 phase”. Besides, in [2], the Papp A→B at 120 min, 2 µM stood at 1.6 ×10⁻⁶ cm/s. Also, the Papp B→A at 120 min, 2 µM in series [2] was determined as 8.56 ×10⁻⁶ cm/s. In addition, the efflux ratio at 120 min, 2 µM in series [2] was determined as 5.34. Moreover, the IC50 was 2.6 nM in series [3], 528 nM in [6] and 164 nM in [7]. The IC90 came out at 26.2 nM in [3] and 5640 nM in [6]. Moreover, in series [4], the number of colonies entry is “significant reduction”. Moreover, the “cardiotoxicity in hERG assay” value in series [5] was “no cardiotoxicity”. The figures for the “Remaining (T = 60 min)” value in series [8] (60 min) and in series [11] (60 min) were 1.29% and 22.8%, respectively. The CLint scaled in series [8] (mouse) was determined as 840 mL/min/kg; in [11], 88.9 mL/min/kg. Further, the half-life came out at 6.53 min in series [8] (mouse, NADPH, 37 °C) and 28.1 min in series [11] (NADPH, 37 °C). In addition, the migration rate result in [9] and in [10] was “decreased significantly” in each case. In addition, in series [12] (setting [13]), the “tumor volume reduced by” value is given as approximately 69.81%. Further, the “tumor weight reduced by” value in [12] (setting [13]) is recorded as approximately 60.16%. Also, the “weight loss in mice” value in series [12] (14 days of treatment) is “did not cause significant weight loss”. In addition, the tumor volume result in series [12] (both 25 and 50 mg/kg, intraperitoneal daily, 14 days) is “significantly reduced”.
